Experimental data from patent publication US20250177382A1, “NEK7 INHIBITORS” (Halia Therapeutics, Inc., priority 2021, published 2025).

Legend:
[1] = test system: IL-1β release in THP-1 cells; test: IL-1β release assay; type: cell-based; conditions: Homo sapiens; PMA-differentiated THP-1 cells, LPS + nigericin, cleaved IL-1β by JESS
Protocol: Approximately 1.5 million THP-1 cells were plated in each well of a 6-well TC plate and incubated with 40 nM PMA in RPMI (10% FBS, 1% Penstrep) for 24 hours. The media was then removed and cells were rested in RPMI (10% FBS, 1% Penstrep) for 24 hours after which time the media was removed and cells were pre-treated for 2 hours with various concentrations of compounds of interest (typically serial 3-fold dilution in RPMI+5% FBS, concentrations ranging from 1 μM to 0.5 nM) in RPMI (5% FBS). The media was again removed and cells were incubated with 250 ng/mL LPS and compounds of interest (concentrations as above) in RMPI (5% FBS) for 2 hours. The media was removed for a last time and cells were incubated with 20 μM nigericin and compounds of interest (concentrations as above) in Opti-MEM for 30 minutes. Cell media was then collected and the amount of cleaved IL-1β was determined using a JESS instrument (Protein Simple) and standard protocols. Cleaved Il-1β antibody was obtained from Cell Signaling (catalogue #83186S) and was used at 1:20 dilution in antibody diluent 2. Protein Simple 1× anti-Rabbit HRP secondary antibody was used along with Protein Simple luminol and peroxide for chemiluminescent detection. Primary antibody incubation time was increased from 30 minutes to 60 minutes.
(§1) Representative compounds were tested for inhibitory activity against NEK7 and IL-1β release according to the procedures described above.

[2] = target: T1, full-length recombinant human NEK7 (Homo sapiens, UniProt Q8TDX7); test: NEK7 enzymatic assay; type: biochemical; conditions: casein substrate, [32P]-ATP, radiometric P81 filter assay
T1 construct: full-length recombinant human NEK7; GST (N); purchased SignalChem N09-10G; host or cells: Sf9 insect cells (baculovirus)
Protocol: Casein substrate (from bovine milk, hydrolyzed and partially dephosphorylated mixture of α, β, and κ caseins, obtained from Sigma Aldrich, catalogue #C4765, diluted in distilled water to a final concentration of 1 mg/mL, assay concentration 20 μM) and full-length recombinant human NEK7 (expressed by baculovirus in Sf9 insect cells using a N-terminal GST tag, obtained from SignalChem, catalogue #N09-10G, […], assay concentration 70 nM) were mixed in assay buffer (20 mM Hepes pH 7.5, 10 mM MgCl2, 1 mM EGTA, 0.02% Brij35, 0.02 mg/mL BSA, 0.1 mM […], 2 mM DTT, 1% DMSO). Compounds of interest (in DMSO, serial 3-fold dilution from 10 μM to 0.5 nM) or control (1% DMSO) were dispensed into the kinase reaction mixture by Acoustic technology (Echo550; nanoliter range). After incubation at room temperature for 20 minutes, the kinase reaction was initiated by addition of [^32P]-ATP (Specific activity 10 μUCi/μl) and the mixture was incubated at room temperature for 2 hours. The reaction was then stopped by spotting the reaction mixture on strips of phosphocellulose P81 paper. Following washing, the radioactivity of the P81 paper was measured and kinase activity data were expressed as the percent remaining kinase activity in test samples compared to vehicle (dimethyl sulfoxide) reactions. IC50 values and curve fits were obtained using Prism (GraphPad Software).
as §1

T1 sequence (Q8TDX7 whole entry): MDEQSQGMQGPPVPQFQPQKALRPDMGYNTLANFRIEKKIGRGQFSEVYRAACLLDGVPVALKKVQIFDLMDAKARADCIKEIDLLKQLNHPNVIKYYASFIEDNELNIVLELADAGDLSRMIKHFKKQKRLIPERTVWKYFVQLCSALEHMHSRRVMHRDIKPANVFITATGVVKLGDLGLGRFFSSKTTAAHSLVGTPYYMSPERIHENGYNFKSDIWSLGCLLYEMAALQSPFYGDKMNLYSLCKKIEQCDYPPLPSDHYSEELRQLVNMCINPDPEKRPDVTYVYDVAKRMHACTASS

Row | IC50 [1] | IC50 [2] | Structure (SMILES)
1 | 50 to 250 nM |  | CN1CCN(Cc2ccc(NC(=O)Nc3ccc(Oc4ccnc5[nH]cc(C6CC6)c45)cc3F)cc2C(F)(F)F)CC1 [Example I-7, 1-(4-((3-cyclopropyl-1H-pyrrolo[2,3-b]pyridin-4-yl)oxy)-2-fluorophenyl)-3-(4-((4-methylpiperazin-1-yl)methyl)-3-(trifluoromethyl)phenyl)urea]
2 | < 50 nM |  | Cc1[nH]c2nccc(Oc3ccc(NC(=O)Nc4ccc(CN5CCN(C)CC5)c(C(F)(F)F)c4)c(F)c3)c2c1Cl [Example I-11, 1-(4-((3-chloro-2-methyl-1H-pyrrolo[2,3-b]pyridin-4-yl)oxy)-2-fluorophenyl)-3-(4-((4-methylpiperazin-1-yl)methyl)-3-(trifluoromethyl)phenyl)urea]
3 | < 50 nM | < 200 nM | CN1CCN(Cc2ccc(NC(=O)Nc3ccc(Oc4ccnc5[nH]cc(Cl)c45)cn3)cc2C(F)(F)F)CC1 [Example I-24, 1-(5-((3-chloro-1H-pyrrolo[2,3-b]pyridin-4-yl)oxy)pyridin-2-yl)-3-(4-((4-methylpiperazin-1-yl)methyl)-3-(trifluoromethyl)phenyl)urea]
4 | 50 to 250 nM | 200 to 500 nM | Cc1c[nH]c2nccc(Oc3ccc(NC(=O)Nc4ccc(CN5CCN(C)CC5)c(C(F)(F)F)c4)c(F)c3)c12 [Example I-36, 1-(2-fluoro-4-((3-methyl-1H-pyrrolo[2,3-b]pyridin-4-yl)oxy)phenyl)-3-(4-((4-methylpiperazin-1-yl)methyl)-3-(trifluoromethyl)phenyl)urea]
5 | < 50 nM |  | CCN1CCN(Cc2ccc(NC(=O)Nc3ccc(Oc4ccnc5[nH]cc(Cl)c45)cc3F)cc2C(F)(F)F)CC1 [Example I-37, 1-(4-((3-chloro-1H-pyrrolo[2,3-b]pyridin-4-yl)oxy)-2-fluorophenyl)-3-(4-((4-ethylpiperazin-1-yl)methyl)-3-(trifluoromethyl)phenyl)urea]
6 | 50 to 250 nM | 200 to 500 nM | CN1CCC(Oc2ccc(NC(=O)Nc3ccc(Oc4ccnc5[nH]cc(Cl)c45)cc3F)cc2C(F)(F)F)CC1 [Example I-39, 1-(4-((3-chloro-1H-pyrrolo[2,3-b]pyridin-4-yl)oxy)-2-fluorophenyl)-3-(4-((1-methylpiperidin-4-yl)oxy)-3-(trifluoromethyl)phenyl)urea]
7 | < 50 nM | 500 to 2000 nM | CN1CCC(=Cc2ccc(NC(=O)Nc3ccc(Oc4ccnc5[nH]cc(Cl)c45)cc3F)cc2C(F)(F)F)CC1 [Example I-40, 1-(4-((3-chloro-1H-pyrrolo[2,3-b]pyridin-4-yl)oxy)-2-fluorophenyl)-3-(4-((1-methylpiperidin-4-ylidene)methyl)-3-(trifluoromethyl)phenyl)urea]
8 | 50 to 250 nM | 200 to 500 nM | CN1CCC(Oc2ncc(NC(=O)Nc3ccc(Oc4ccnc5[nH]cc(Cl)c45)cc3F)cc2C(F)(F)F)CC1 [Example I-58, 1-(4-((3-chloro-1H-pyrrolo[2,3-b]pyridin-4-yl)oxy)-2-fluorophenyl)-3-(6-((1-methylpiperidin-4-yl)oxy)-5-(trifluoromethyl)pyridin-3-yl)urea]
9 | 250 to 1000 nM | > 2000 nM | CC(=O)N1CCC(Oc2ccc(NC(=O)Nc3ccc(Oc4ccnc5[nH]cc(Cl)c45)cc3F)cc2C(F)(F)F)CC1 [Example I-59, 1-(4-((1-acetylpiperidin-4-yl)oxy)-3-(trifluoromethyl)phenyl)-3-(4-((3-chloro-1H-pyrrolo[2,3-b]pyridin-4-yl)oxy)-2-fluorophenyl)urea]
